Assay: xn = mol fraction of the nth substance listed
Details: 101 kPa, Liquid; for speed of sound: Sing-around technique in a fixed-path interferometer; for mass density: Vibrating tube method

CC(C)CCl [1-chloro-2-methylpropane] + CCCCCC
Details	mass density, 283.15 K [kg/m3]	mass density, 298.15 K [kg/m3]	mass density, 313.15 K [kg/m3]	speed of sound, 283.15 K [m/s]	speed of sound, 298.15 K [m/s]	speed of sound, 313.15 K [m/s]
x2 = 0	888.845	871.533	853.902	1141.7	1078.6	1016.3
x2 = 0.0512	874.715	857.627	840.236	1139.3	1075.9	1013.4
x2 = 0.0999	861.62	844.732	827.564	1137.3	1073.7	1011
x2 = 0.2003	835.641	819.166	802.454	1134	1070	1006.9
x2 = 0.2993	811.259	795.172	778.889	1131.9	1067.5	1003.9
x2 = 0.4005	787.516	771.817	755.943	1130.6	1065.8	1001.8
x2 = 0.4977	765.822	750.487	735.001	1130.5	1065.2	1000.6
x2 = 0.598	744.502	729.51	714.446	1131.3	1065.5	1000.4
x2 = 0.6993	723.963	709.35	694.648	1133	1066.7	1001.1
x2 = 0.799	704.731	690.452	676.142	1135.8	1069	1002.8
x2 = 0.8967	686.793	672.832	658.858	1139.6	1072.2	1005.6
x2 = 0.9472	677.811	664.036	650.244	1142	1074.3	1007.5

CC(C)CCl [1-chloro-2-methylpropane] + CCCCCCC
Details	mass density, 283.15 K [kg/m3]	mass density, 298.15 K [kg/m3]	mass density, 313.15 K [kg/m3]	speed of sound, 283.15 K [m/s]	speed of sound, 298.15 K [m/s]	speed of sound, 313.15 K [m/s]
x2 = 0	888.845	871.533	853.902	1141.7	1078.6	1016.3
x2 = 0.0507	874.748	857.771	840.47	1142.2	1079.1	1016.8
x2 = 0.0979	862.133	845.448	828.448	1143	1079.8	1017.4
x2 = 0.2004	836.427	820.343	803.95	1145.4	1082.2	1019.6
x2 = 0.3008	813.265	797.726	781.886	1149	1085.5	1022.9
x2 = 0.3993	792.269	777.224	761.888	1153.4	1089.8	1027
x2 = 0.4999	772.383	757.812	742.952	1158.6	1094.9	1032
x2 = 0.5973	754.5	740.349	725.924	1164.4	1100.6	1037.5
x2 = 0.6994	737.065	723.337	709.345	1171.2	1107.2	1044
x2 = 0.8006	720.978	707.64	694.051	1178.7	1114.2	1051.1
x2 = 0.9002	706.284	693.212	679.976	1187	1122.3	1058.9
x2 = 0.9491	699.353	686.54	673.496	1191	1126.4	1062.7

CCCCCl [1-chlorobutane] + CCCCCC
Details	mass density, 283.15 K [kg/m3]	mass density, 298.15 K [kg/m3]	mass density, 313.15 K [kg/m3]	speed of sound, 283.15 K [m/s]	speed of sound, 298.15 K [m/s]	speed of sound, 313.15 K [m/s]
x2 = 0	897.339	880.785	863.882	1180.1	1118.2	1056.9
x2 = 0.0508	882.878	866.478	849.768	1176	1113.8	1052.2
x2 = 0.0992	869.441	853.196	836.65	1172.3	1109.7	1047.9
x2 = 0.1972	843.152	827.205	810.995	1165.6	1102.4	1040
x2 = 0.2966	817.766	802.115	786.257	1159.7	1095.9	1032.8
x2 = 0.3976	793.168	777.821	762.288	1154.6	1090.2	1026.5
x2 = 0.5009	769.237	754.195	739.001	1150.5	1085.6	1021.2
x2 = 0.6006	747.205	732.45	717.601	1147.4	1081.8	1016.9
x2 = 0.6982	726.617	712.126	697.583	1145.2	1079.1	1013.6
x2 = 0.7972	706.669	692.488	678.241	1143.9	1077.2	1011.2
x2 = 0.8979	687.33	673.439	659.508	1143.7	1076.4	1009.8
x2 = 0.9472	678.205	664.449	650.666	1144.1	1076.4	1009.7
